Laboratory results published in the NIST ThermoML archive (doi:10.1021/acs.jced.5b00367).

Experiment: wn = mass fraction of the nth substance listed
Settings: 101 kPa, Liquid, Alternating current cell with electrodes, w1 = 0.01

CCCCCCCCCC[N+](CC)(CC)CCCCCCCCCC.[Br-] [didecyldiethylammonium bromide] + O
Settings | electrical conductivity [S/m]
277.55 K | 0.0116
277.75 K | 0.0115
277.85 K | 0.0116
277.95 K | 0.0116
278.15 K | 0.0117
278.25 K | 0.0117
278.35 K | 0.0117
278.45 K | 0.0116
278.55 K | 0.0116
278.65 K | 0.0116
278.75 K | 0.0117
278.85 K | 0.0117
279.05 K | 0.0118
279.15 K | 0.0118
279.25 K | 0.0118
279.35 K | 0.0119
279.55 K | 0.012
279.65 K | 0.012
279.85 K | 0.012
279.95 K | 0.012
280.15 K | 0.0121
280.25 K | 0.0121
280.35 K | 0.0122
280.45 K | 0.0122
280.55 K | 0.0123
280.65 K | 0.0123
280.75 K | 0.0123
280.95 K | 0.0123
281.05 K | 0.0124
281.15 K | 0.0124
281.25 K | 0.0124
281.35 K | 0.0125
281.45 K | 0.0126
281.55 K | 0.0126
281.65 K | 0.0127
281.75 K | 0.0127
281.85 K | 0.0127
281.95 K | 0.0127
282.05 K | 0.0128
282.15 K | 0.0129
282.35 K | 0.0128
282.45 K | 0.0129
282.55 K | 0.013
282.65 K | 0.013
282.75 K | 0.0131
282.85 K | 0.0131
282.95 K | 0.0131
283.05 K | 0.0132
283.15 K | 0.0132
283.25 K | 0.0133
283.35 K | 0.0133
283.45 K | 0.0134
283.55 K | 0.0134
283.75 K | 0.0135
283.85 K | 0.0136
283.95 K | 0.0136
284.05 K | 0.0136
284.15 K | 0.0137
284.25 K | 0.0137
284.35 K | 0.0138
284.45 K | 0.0139
284.55 K | 0.0138
284.65 K | 0.0139
284.75 K | 0.014
284.85 K | 0.0141
284.95 K | 0.0141
285.05 K | 0.0143
285.15 K | 0.0143
285.25 K | 0.0142
285.35 K | 0.0144
285.45 K | 0.0145
285.55 K | 0.0146
285.65 K | 0.0146
285.75 K | 0.0148
285.85 K | 0.0147
285.95 K | 0.015
286.05 K | 0.015
286.15 K | 0.0152
286.25 K | 0.0152
286.35 K | 0.0154
286.45 K | 0.0155
286.55 K | 0.0157
286.65 K | 0.0158
286.75 K | 0.016
286.85 K | 0.0161
286.95 K | 0.0164
287.05 K | 0.0164
287.15 K | 0.0167
287.25 K | 0.0169
287.35 K | 0.0172
287.45 K | 0.0175
287.55 K | 0.0177
287.65 K | 0.0179
287.75 K | 0.0182
287.85 K | 0.0186
287.95 K | 0.0189
288.05 K | 0.0192
288.15 K | 0.0196
288.25 K | 0.0201
288.35 K | 0.0206
288.45 K | 0.021
288.55 K | 0.0213
288.65 K | 0.0218
288.75 K | 0.022
288.85 K | 0.0225
288.95 K | 0.0227
289.05 K | 0.0228
289.15 K | 0.0233
289.25 K | 0.0238
289.35 K | 0.0241
289.45 K | 0.0243
289.55 K | 0.0249
289.75 K | 0.0256
289.85 K | 0.0262
289.95 K | 0.0267
290.05 K | 0.0274
290.15 K | 0.028
290.25 K | 0.0287
290.35 K | 0.0297
290.45 K | 0.0305
290.55 K | 0.0311
290.65 K | 0.0319
290.75 K | 0.0329
290.85 K | 0.0339
290.95 K | 0.0352
291.15 K | 0.0365
291.25 K | 0.0379
291.35 K | 0.0395
291.45 K | 0.0401
291.55 K | 0.0419
291.65 K | 0.0447
291.75 K | 0.0451
291.85 K | 0.047
291.95 K | 0.0496
292.05 K | 0.0526
